The values that follow come from patent US20260070945A1, “MACROCYCLIC IMMUNOMODULATORS” (Bristol-Myers Squibb Company, priority 2022, published 2026).

SMILES strings stand for the structures. Where a SMILES comes first, the peptide text is derived from it. Bridges are numbered along the chain shown (N, C = ends). [ ]: non-standard residue; d: D form. The star is where a group is joined. ξ: configuration not given here. Phe(4-COOH) = N[C@@H](Cc1ccc(C(=O)O)cc1)C(=O)O; Bip = N[C@@H](Cc1ccc(-c2ccccc2)cc1)C(=O)O; Phe(3-Me) = Cc1cccc(C[C@H](N)C(=O)O)c1; Val(3-OH) = CC(C)(O)[C@H](N)C(=O)O; 3Thi = N[C@@H](Cc1ccsc1)C(=O)O; Cha = N[C@@H](CC1CCCCC1)C(=O)O; Ile(3ξ) = CCC(C)[C@H](N)C(=O)O; Thr(3ξ) = CC(O)[C@H](N)C(=O)O; Carboxymethyl = O=C(O)C*; NMeA = CN[C@@H](C)C(=O)O; Aun = NCCCCCCCCCCC(=O)O; Dab = NCC[C@H](N)C(=O)O; AEEA = NCCOCCOCC(=O)O

T1 sequence (Q15116 25-288): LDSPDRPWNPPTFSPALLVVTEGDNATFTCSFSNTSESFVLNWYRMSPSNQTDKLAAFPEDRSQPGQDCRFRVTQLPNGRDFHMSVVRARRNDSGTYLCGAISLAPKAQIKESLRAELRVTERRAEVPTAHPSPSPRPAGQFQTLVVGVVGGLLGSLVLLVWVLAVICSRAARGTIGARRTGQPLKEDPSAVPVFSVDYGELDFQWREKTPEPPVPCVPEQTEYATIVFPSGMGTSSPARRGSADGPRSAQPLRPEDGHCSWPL

This test has as its target T1, PD-1/PD-L1 interaction (PE-labeled human PD-L1-Ig binding to Jurkat cell line over-expressing human PD-1) (Homo sapiens, UniProt Q15116).
T1 construct: expressed in transfected cells; host or cells: Jurkat
The experiment in a line: Jurkat-PD-1 Cell Binding High-Content Screening Assay (CBA). To be noted: PE-labeled PD-L1-Ig 20 nM final, Jurkat-hPD-1 cells; read-out: Jurkat HPD1 PDL1 IC50. The method, boiled down: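 Compound is added first to the PD-1-expressing Jurkat cells and held 2 h at 37 °C in serum-containing DMEM. The fluorescent PD-L1 fusion follows at 20 nM final for 1 h. Fixed, Hoechst-stained cells are then imaged for bound label.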
For orientation: IC50 means the concentration that gives 50% inhibition. For `CC(=O)NCCCC[C@@H]1NC(=O)[C@H](C(C)C)NC(=O)[C@H](CC2CCCCC2)NC(=O)[C@H](CCN)NC(=O)[C@@H](CC(C)C)NC(=O)[C@H](C)N(C)C(=O)[C@H](CCC(N)=O)NC(=O)[C@H](Cc2ccc(-c3ccccc3)cc2)NC(=O)[C@H](CC(C)C)NC(=O)[C@H](Cc2c[nH]c3ccccc23)NC(=O)[C@H](CC(=O)O)NC(=O)[C@H](Cc2ccc(OCC(=O)O)cc2)NC(=O)[C@H](Cc2ccsc2)NC(=O)CSC[C@@H](C(=O)N[C@@H](CCN)C(=O)NCCOCCOCC(=O)NCCCCCCCCCCC(=O)O)NC1=O` [Example 2503] ({CH2CO}-[3Thi]Y(Carboxymethyl)DWL[Bip]Q[NMeA][dL][Dab][Cha]VK(Ac)C[Dab][AEEA][Aun]-OH; thioether N-14), the IC50 is 12.2 nM. With `CC(C)C[C@@H]1NC(=O)[C@H](Cc2c[nH]c3ccccc23)NC(=O)[C@H](CC(=O)O)NC(=O)[C@H](Cc2ccc(OCC(=O)O)cc2)NC(=O)[C@H](Cc2ccsc2)NC(=O)CSC[C@@H](C(=O)N[C@@H](CCN)C(=O)NCCOCCOCC(=O)NCCCCCCCCCCC(=O)O)NC(=O)[C@H](CCC(=O)O)NC(=O)[C@H](C(C)(C)O)NC(=O)[C@H](CC2CCCCC2)NC(=O)[C@H](CCN)NC(=O)[C@@H](CC(C)C)NC(=O)[C@H](C)N(C)C(=O)[C@H](CCC(N)=O)NC(=O)[C@H](Cc2ccc(-c3ccccc3)cc2)NC1=O` [Example 2504] ({CH2CO}-[3Thi]Y(Carboxymethyl)DWL[Bip]Q[NMeA][dL][Dab][Cha][Val(3-OH)]EC[Dab][AEEA][Aun]-OH; thioether N-14) the figure was 13.2 nM; with `Cc1cccc(C[C@@H]2NC(=O)[C@H](CC(=O)O)NC(=O)[C@H](Cc3ccc(C(=O)O)cc3)NC(=O)[C@H](Cc3ccsc3)NC(=O)CSC[C@@H](C(=O)N[C@@H](CCN)C(=O)NCCOCCOCC(=O)NCCCCCCCCCCC(=O)O)NC(=O)[C@H](CCC(=O)O)NC(=O)[C@H](C(C)(C)O)NC(=O)[C@H](CC3CCCCC3)NC(=O)[C@H](CCN)NC(=O)[C@@H](CC(C)C)NC(=O)[C@H](C)N(C)C(=O)[C@H](Cc3ccc(OCC(=O)O)cc3)NC(=O)[C@H](Cc3ccc(-c4ccccc4)cc3)NC(=O)[C@H](Cc3ccc(OCC(=O)O)cc3)NC2=O)c1` [Example 2505] ({CH2CO}-[3Thi][Phe(4-COOH)]D[Phe(3-Me)]Y(Carboxymethyl)[Bip]Y(Carboxymethyl)[NMeA][dL][Dab][Cha][Val(3-OH)]EC[Dab][AEEA][Aun]-OH; thioether N-14), 12.9 nM. Consider `Cc1cccc(C[C@@H]2NC(=O)[C@H](CC(=O)O)NC(=O)[C@H](Cc3ccc(C(=O)O)cc3)NC(=O)[C@H](Cc3ccsc3)NC(=O)CSC[C@@H](C(=O)N[C@@H](CCN)C(=O)NCCOCCOCC(=O)NCCCCCCCCCCC(=O)O)NC(=O)[C@H](CCC(=O)O)NC(=O)[C@H](C(C)(C)O)NC(=O)[C@H](CC3CCCCC3)NC(=O)[C@H](CCN)NC(=O)[C@@H](CC(C)C)NC(=O)[C@H](C)N(C)C(=O)[C@H](Cc3ccc(C(=O)O)cc3)NC(=O)[C@H](Cc3ccc(-c4ccccc4)cc3)NC(=O)[C@H](Cc3ccc(C(=O)O)cc3)NC2=O)c1` [Example 2506] ({CH2CO}-[3Thi][Phe(4-COOH)]D[Phe(3-Me)][Phe(4-COOH)][Bip][Phe(4-COOH)][NMeA][dL][Dab][Cha][Val(3-OH)]EC[Dab][AEEA][Aun]-OH; thioether N-14), for which the IC50 came out at 10.3 nM.

On to `Cc1cccc(C[C@@H]2NC(=O)[C@H](CC(=O)O)NC(=O)[C@H](Cc3ccc(OCC(=O)O)cc3)NC(=O)[C@H](C(C)O)NC(=O)CSC[C@@H](C(=O)N[C@@H](CO)C(=O)NCCOCCOCC(=O)NCCCCCCCCCCC(=O)O)NC(=O)[C@H](CCC(=O)O)NC(=O)[C@H](C(C)(C)O)NC(=O)[C@H](CC3CCCCC3)NC(=O)[C@H](CCN)NC(=O)[C@@H](CC(C)C)NC(=O)[C@H](C)N(C)C(=O)[C@H](Cc3ccc(OCC(=O)O)cc3)NC(=O)[C@H](Cc3ccc(-c4ccccc4)cc3)NC(=O)[C@H](Cc3ccc(OCC(=O)O)cc3)NC2=O)c1` (stereo partly drawn) [Example 2507] ({CH2CO}-[Thr(3ξ)]Y(Carboxymethyl)D[Phe(3-Me)]Y(Carboxymethyl)[Bip]Y(Carboxymethyl)[NMeA][dL][Dab][Cha][Val(3-OH)]ECS[AEEA][Aun]-OH; thioether N-14), for which the IC50 came to 393 nM. With `Cc1cccc(C[C@@H]2NC(=O)[C@H](CC(=O)O)NC(=O)[C@H](Cc3ccc(OCC(=O)O)cc3)NC(=O)[C@H](C(C)O)NC(=O)CSC[C@@H](C(=O)N[C@@H](CCN)C(=O)NCCOCCOCC(=O)NCCCCCCCCCCC(=O)O)NC(=O)[C@H](CCC(=O)O)NC(=O)[C@H](C(C)(C)O)NC(=O)[C@H](CC3CCCCC3)NC(=O)[C@H](CCN)NC(=O)[C@@H](CC(C)C)NC(=O)[C@H](C)N(C)C(=O)[C@H](Cc3ccc(OCC(=O)O)cc3)NC(=O)[C@H](Cc3ccc(-c4ccccc4)cc3)NC(=O)[C@H](Cc3ccc(OCC(=O)O)cc3)NC2=O)c1` (stereo partly drawn) [Example 2508] ({CH2CO}-[Thr(3ξ)]Y(Carboxymethyl)D[Phe(3-Me)]Y(Carboxymethyl)[Bip]Y(Carboxymethyl)[NMeA][dL][Dab][Cha][Val(3-OH)]EC[Dab][AEEA][Aun]-OH; thioether N-14) the figure was 40.6 nM; with `CCC(C)[C@@H]1NC(=O)[C@H](Cc2ccc(-c3ccccc3)cc2)NC(=O)[C@H](CC(C)C)NC(=O)[C@H](Cc2c[nH]c3ccccc23)NC(=O)[C@H](CC(=O)O)NC(=O)[C@H](Cc2ccc(OCC(=O)O)cc2)NC(=O)[C@H](C(C)O)NC(=O)CSC[C@@H](C(=O)N[C@@H](CCN)C(=O)NCCOCCOCC(=O)NCCCCCCCCCCC(=O)O)NC(=O)[C@H](CCC(=O)O)NC(=O)[C@H](C(C)(C)O)NC(=O)[C@H](CC2CCCCC2)NC(=O)[C@H](CCN)NC(=O)[C@@H](CC(C)C)NC(=O)[C@H](C)N(C)C1=O` (stereo partly drawn) [Example 2509] ({CH2CO}-[Thr(3ξ)]Y(Carboxymethyl)DWL[Bip][Ile(3ξ)][NMeA][dL][Dab][Cha][Val(3-OH)]EC[Dab][AEEA][Aun]-OH; thioether N-14), 13 nM; with `CCC(C)[C@@H]1NC(=O)[C@H](Cc2ccc(-c3ccccc3)cc2)NC(=O)[C@H](CC(C)C)NC(=O)[C@H](Cc2c[nH]c3ccccc23)NC(=O)[C@H](CC(=O)O)NC(=O)[C@H](Cc2ccc(OCC(=O)O)cc2)NC(=O)[C@H](Cc2ccsc2)NC(=O)CSC[C@@H](C(=O)N[C@@H](CCN)C(=O)NCCOCCOCC(=O)NCCCCCCCCCCC(=O)O)NC(=O)[C@H](CCC(=O)O)NC(=O)[C@H](C(C)(C)O)NC(=O)[C@H](CC2CCCCC2)NC(=O)[C@H](CCN)NC(=O)[C@@H](CC(C)C)NC(=O)[C@H](C)N(C)C1=O` (stereo partly drawn) [Example 2510] ({CH2CO}-[3Thi]Y(Carboxymethyl)DWL[Bip][Ile(3ξ)][NMeA][dL][Dab][Cha][Val(3-OH)]EC[Dab][AEEA][Aun]-OH; thioether N-14), 18.1 nM.

Consider `Cc1cccc(C[C@@H]2NC(=O)[C@H](CC(=O)O)NC(=O)[C@H](Cc3ccc(OCC(=O)O)cc3)NC(=O)[C@H](C(C)C)NC(=O)CSC[C@@H](C(=O)N[C@@H](CCN)C(=O)NCCOCCOCC(=O)NCCCCCCCCCCC(=O)O)NC(=O)[C@H](CCC(=O)O)NC(=O)[C@H](C(C)(C)O)NC(=O)[C@H](CC3CCCCC3)NC(=O)[C@H](CCN)NC(=O)[C@@H](CC(C)C)NC(=O)[C@H](C)N(C)C(=O)[C@H](Cc3ccc(C(=O)O)cc3)NC(=O)[C@H](Cc3ccc(-c4ccccc4)cc3)NC(=O)[C@H](Cc3ccc(C(=O)O)cc3)NC2=O)c1` [Example 2511] ({CH2CO}-VY(Carboxymethyl)D[Phe(3-Me)][Phe(4-COOH)][Bip][Phe(4-COOH)][NMeA][dL][Dab][Cha][Val(3-OH)]EC[Dab][AEEA][Aun]-OH; thioether N-14), for which the IC50 came to 16.1 nM. In the case of `Cc1cccc(C[C@@H]2NC(=O)[C@H](CC(=O)O)NC(=O)[C@H](Cc3ccc(OCC(=O)O)cc3)NC(=O)[C@H](Cc3ccsc3)NC(=O)CSC[C@@H](C(=O)N[C@@H](CCN)C(=O)NCCCCCCCCCCC(=O)O)NC(=O)[C@H](CO)NC(=O)[C@H](C(C)(C)O)NC(=O)[C@H](CC3CCCCC3)NC(=O)[C@H](CCN)NC(=O)[C@@H](CC(C)C)NC(=O)[C@H](C)N(C)C(=O)[C@H](Cc3ccc(C(=O)O)cc3)NC(=O)[C@H](Cc3ccc(-c4ccccc4)cc3)NC(=O)[C@H](Cc3ccc(C(=O)O)cc3)NC2=O)c1` [Example 2513] ({CH2CO}-[3Thi]Y(Carboxymethyl)D[Phe(3-Me)][Phe(4-COOH)][Bip][Phe(4-COOH)][NMeA][dL][Dab][Cha][Val(3-OH)]SC[Dab][Aun]-OH; thioether N-14), the IC50 worked out at 14.4 nM. With `CCC(C)[C@@H]1NC(=O)[C@H](Cc2ccc(-c3ccccc3)cc2)NC(=O)[C@H](C(C)C)NC(=O)[C@H](Cc2c[nH]c3ccccc23)NC(=O)[C@H](CC(=O)O)NC(=O)[C@H](Cc2ccc(OCC(=O)O)cc2)NC(=O)[C@H](Cc2cnc[nH]2)NC(=O)CSC[C@@H](C(=O)N[C@H](C)C(=O)NCCOCCOCC(=O)NCCCCCCCCCCC(=O)O)NC(=O)[C@H](C(C)O)NC(=O)[C@H](C(C)(C)O)NC(=O)[C@H](CC2CCCCC2)NC(=O)[C@H](CCN)NC(=O)[C@@H](CC(C)C)NC(=O)[C@H](C)N(C)C1=O` (stereo partly drawn) [Example 2514] ({CH2CO}-HY(Carboxymethyl)DWV[Bip][Ile(3ξ)][NMeA][dL][Dab][Cha][Val(3-OH)][Thr(3ξ)]C[dA][AEEA][Aun]-OH; thioether N-14) the figure was 16.8 nM. To `CCC(C)[C@@H]1NC(=O)[C@H](Cc2ccc(-c3ccccc3)cc2)NC(=O)[C@H](CC(C)C)NC(=O)[C@H](Cc2c[nH]c3ccccc23)NC(=O)[C@H](CC(=O)O)NC(=O)[C@H](Cc2ccc(OCC(=O)O)cc2)NC(=O)[C@H](Cc2ccc(OCC(=O)O)cc2)NC(=O)CSC[C@@H](C(=O)N[C@@H](CCN)C(=O)NCCOCCOCC(=O)NCCCCCCCCCCC(=O)O)NC(=O)[C@H](Cc2cnc[nH]2)NC(=O)[C@H](C(C)(C)O)NC(=O)[C@H](CC2CCCCC2)NC(=O)[C@H](CCN)NC(=O)[C@@H](CC(C)C)NC(=O)[C@H](C)N(C)C1=O` (stereo partly drawn) [Example 2515] ({CH2CO}-Y(Carboxymethyl)Y(Carboxymethyl)DWL[Bip][Ile(3ξ)][NMeA][dL][Dab][Cha][Val(3-OH)]HC[Dab][AEEA][Aun]-OH; thioether N-14) belongs 3.1 nM.
